Patent publication US6355799B1, “Substituted benzene compounds, process for their preparation, and herbicidal and defoliant compositions containing them” (ISK Americas Incorporated, priority 1997, dated 2002)

Key:
Assay type in all cases: in vivo
[1] = tested on: green foxtail (Setaria viridis, SETVI); test: Pre-emerge test, greenhouse herbicide activity screening; conditions: pre-emerge, 14 days after application, scale 0-100
Source text: (§1) A standard greenhouse herbicide activity screening system was used to evaluate the herbicidal efficacy and crop safety of these test compounds. Seven broadleaf weed species including redroot pigweed (Amaranthus retroflexus, AMARE, velvetleaf (Abutilon theophrasti, ABUTH), sicklepod (Cassia obtusifolia, CASOB), ivyleaf morningglory (Ipomoea hederacea, IPOHE), lambsquarters (Chenopodium album, CHEAL), common ragweed (Ambrosia artemisizfolia L., AMBEL), and cocklebur (Xanthium strumarium, XANST) were used as test species. Four grass weed species including green foxtail (Setaria viridis, SETVI), barnyardgrass (Echinochloa crus-galli, ECHCG), johnsongrass (Sorghum halepense, SORHA), and large crabgrass (Digitaria sanguinalis, DIGSA) were also used. In addition, three crop species, field corn (Zea mays L., var. Dekalb 535, CORN), soybean (Glycine max L., var. Pella 86, SOY), and is upland rice (Oryza sp., var. Tebonnet, RICE) were included.
(§2) All plants were grown in 10 cm square plastic pots which were filled with a sandy loam soil mix. For pre-emerge tests, seeds were planted one day prior to application of the test compounds. For post-emerge tests, seeds were planted 8-21 days prior to the test to allow emergence and good foliage development prior to application of the test substances. At the time of the post-emerge application, plants of all species were usually at the 2-3 leaf stage of development.
(§3) All test compounds Were dissolved in acetone and applied to the test units in a volume of 187 l /ha. Test materials were applied at rates ranging from 15 g ai/ha to 1000 g ai/ha using a track sprayer equipped with a TJ8001E even flow flat fan spray nozzle. Plants were arranged on a shelf so that the top of the canopy (post-emerge) or top of the soil surface (pre-emerge) was 40-45 cm below the nozzle. Pressurized air was used to force the test solution through the nozzle as it was mechanically advanced (via electrically driven chain drive) over the top of all test plants/pots. This application simulates a typical commercial field herbicide application.
(§4) In the post-emerge test, a commercial non-ionic surfactant was also included (0.25% v/v) to enhance wetting of the leaf surfaces of target plants. Immediately after application, test units of the pre-emerge applications were watered at the soil surface to incorporate the test materials. Subsequently, these test units were bottom-watered. Post-emerge test units were always bottom-watered.
(§5) At 14 days after application of the test materials, phytotoxicity ratings were recorded. A rating scale of 0-100 was used as previously described in Research Methods in Weed Science, 2nd edition, B. Truelove, Ed., Southern Weed Science Society, Auburn University, Auburn, Ala. 1977. Briefly, “0” corresponds to no damage and “100” corresponds to complete death of all plants in the test unit. This scale was used both to determine efficacy against weed species and damage to crop species. Herbicide activity data for various compounds of this invention, which are shown by compound No. in Tables 1-8, are shown in Tables 11 and 12.

[2] = tested on: large crabgrass (Digitaria sanguinalis, DIGSA); test: as above; conditions: pre-emerge, 14 days after application, scale 0-100
Source text: as §1, §2, §3, §4, §5

[3] = tested on: sicklepod (Cassia obtusifolia, CASOB); test: as above; conditions: pre-emerge, 14 days after application, scale 0-100
Source text: as §1, §2, §3, §4, §5

[4] = tested on: ivyleaf morningglory (Ipomoea hederacea, IPOHE); test: as above; conditions: pre-emerge, 14 days after application, scale 0-100
Source text: as §1, §2, §3, §4, §5

[5] = tested on: lambsquarters (Chenopodium album, CHEAL); test: as above; conditions: pre-emerge, 14 days after application, scale 0-100
Source text: as §1, §2, §3, §4, §5

[6] = tested on: barnyardgrass (Echinochloa crus-galli, ECHCG); test: as above; conditions: pre-emerge, 14 days after application, scale 0-100
Source text: as §1, §2, §3, §4, §5

[7] = tested on: velvetleaf (Abutilon theophrasti, ABUTH); test: as above; conditions: pre-emerge, 14 days after application, scale 0-100
Source text: as §1, §2, §3, §4, §5

[8] = tested on: field corn (Zea mays L., var. Dekalb 535, CORN); test: Pre-emerge test, crop safety; conditions: pre-emerge, 14 days after application, scale 0-100
In short: (§6)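 Fourteen days after spraying, crop and weed injury was graded visually from 0, no effect, to 100, every plant dead. Test substances were dissolved in acetone and applied at 15–1000 g ai/ha with a flat-fan nozzle. Application was either pre-emergence, one day after sowing, or post-emergence at the 2–3 leaf stage.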

[9] = tested on: upland rice (Oryza sp., var. Tebonnet, RICE); test: Pre-emerge test, crop safety; conditions: pre-emerge, 14 days after application, scale 0-100
In short: as §6

[10] = tested on: redroot pigweed (Amaranthus retroflexus, AMARE); test: Pre-emerge test, greenhouse herbicide activity screening; conditions: pre-emerge, 14 days after application, scale 0-100
In short: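 Plants grown in 10 cm pots of sandy loam mix received acetone-dissolved compounds through a moving flat-fan nozzle. Doses ranged from 15 to 1000 g ai/ha. Pre-emerge pots were seeded one day earlier, post-emerge pots 8–21 days earlier. Fourteen days on, each pot was graded 0–100 for damage.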

[11] = tested on: green foxtail (Setaria viridis, SETVI); test: Post-emerge test, greenhouse herbicide activity screening; conditions: post-emerge, 14 days after application, rating scale 0-100
Source text: as §1, §2, §3, §4, §5

[12] = tested on: large crabgrass (Digitaria sanguinalis, DIGSA); test: as above; conditions: post-emerge, 14 days after application, rating scale 0-100
Source text: as §1, §2, §3, §4, §5

[13] = tested on: sicklepod (Cassia obtusifolia, CASOB); test: as above; conditions: post-emerge, 14 days after application, rating scale 0-100
Source text: as §1, §2, §3, §4, §5

[14] = tested on: ivyleaf morningglory (Ipomoea hederacea, IPOHE); test: as above; conditions: post-emerge, 14 days after application, rating scale 0-100
Source text: as §1, §2, §3, §4, §5

[15] = tested on: redroot pigweed (Amaranthus retroflexus, AMARE); test: as above; conditions: post-emerge, 14 days after application, rating scale 0-100
Source text: as §1, §2, §3, §4, §5

[16] = tested on: lambsquarters (Chenopodium album, CHEAL); test: as above; conditions: post-emerge, 14 days after application, rating scale 0-100
Source text: as §1, §2, §3, §4, §5

[17] = tested on: barnyardgrass (Echinochloa crus-galli, ECHCG); test: as above; conditions: post-emerge, 14 days after application, rating scale 0-100
Source text: as §1, §2, §3, §4, §5

[18] = tested on: velvetleaf (Abutilon theophrasti, ABUTH); test: as above; conditions: post-emerge, 14 days after application, rating scale 0-100
Source text: as §1, §2, §3, §4, §5

[19] = tested on: field corn (Zea mays L., var. Dekalb 535, CORN); test: Post-emerge test, crop safety; conditions: post-emerge, 14 days after application, rating scale 0-100
In short: (§7)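 Compounds in acetone were track-sprayed at 15-1000 g ai/ha (187 l/ha) on sandy loam pots: pre-emerge one day after seeding, post-emerge at 2-3 leaf stage with 0.25% v/v non-ionic surfactant. Phytotoxicity was rated 14 days later on a 0 (no damage) to 100 (complete death) scale.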

[20] = tested on: upland rice (Oryza sp., var. Tebonnet, RICE); test: Post-emerge test, crop safety; conditions: post-emerge, 14 days after application, rating scale 0-100
In short: as §7

C=Cc1ccc(C(=O)N(C(=O)c2ccc(C=C)cc2)c2c(OC)c(Br)cc(F)c2-n2c(=O)cc(C(F)(F)F)n(C)c2=O)cc1 [2-183]
phytotoxicity rating SETVI ([1]; 63 g ai/ha): 0 | phytotoxicity rating SETVI ([1]; 250 g ai/ha): 0 | phytotoxicity rating DIGSA ([2]; 63 g ai/ha): 0 | phytotoxicity rating DIGSA ([2]; 250 g ai/ha): 0 | phytotoxicity rating CASOB ([3]; 63 g ai/ha): 0 | phytotoxicity rating CASOB ([3]; 250 g ai/ha): 0 | phytotoxicity rating IPOHE ([4]; 63 g ai/ha): 0 | phytotoxicity rating IPOHE ([4]; 250 g ai/ha): 0 | phytotoxicity rating CHEAL ([5]; 63 g ai/ha): 0 | phytotoxicity rating CHEAL ([5]; 250 g ai/ha): 40 | phytotoxicity rating ECHCG ([6]; 63 g ai/ha): 0 | phytotoxicity rating ECHCG ([6]; 250 g ai/ha): 0 | phytotoxicity rating ABUTH ([7]; 63 g ai/ha): 0 | phytotoxicity rating ABUTH ([7]; 250 g ai/ha): 10 | phytotoxicity rating CORN (crop damage) ([8]; 63 g ai/ha): 0 | phytotoxicity rating CORN (crop damage) ([8]; 250 g ai/ha): 0 | phytotoxicity rating RICE (crop damage) ([9]; 63 g ai/ha): 0 | phytotoxicity rating RICE (crop damage) ([9]; 250 g ai/ha): 0 | phytotoxicity rating AMARE ([10]; 63 g ai/ha): 0 | phytotoxicity rating AMARE ([10]; 250 g ai/ha): 30 | SETVI phytotoxicity rating ([11]; 63 g ai/ha): 0 | SETVI phytotoxicity rating ([11]; 250 g ai/ha): 0 | DIGSA phytotoxicity rating ([12]; 63 g ai/ha): 0 | DIGSA phytotoxicity rating ([12]; 250 g ai/ha): 0 | CASOB phytotoxicity rating ([13]; 63 g ai/ha): 0 | CASOB phytotoxicity rating ([13]; 250 g ai/ha): 0 | IPOHE phytotoxicity rating ([14]; 63 g ai/ha): 0 | IPOHE phytotoxicity rating ([14]; 250 g ai/ha): 40 | AMARE phytotoxicity rating ([15]; 63 g ai/ha): 0 | AMARE phytotoxicity rating ([15]; 250 g ai/ha): 10 | CHEAL phytotoxicity rating ([16]; 63 g ai/ha): 0 | CHEAL phytotoxicity rating ([16]; 250 g ai/ha): 80 | ECHCG phytotoxicity rating ([17]; 63 g ai/ha): 0 | ECHCG phytotoxicity rating ([17]; 250 g ai/ha): 0 | ABUTH phytotoxicity rating ([18]; 63 g ai/ha): 0 | ABUTH phytotoxicity rating ([18]; 250 g ai/ha): 50 | CORN phytotoxicity rating (crop damage) ([19]; 63 g ai/ha): 0 | CORN phytotoxicity rating (crop damage) ([19]; 250 g ai/ha): 0 | RICE phytotoxicity rating (crop damage) ([20]; 63 g ai/ha): 0 | RICE phytotoxicity rating (crop damage) ([20]; 250 g ai/ha): 0
